Assay results published in patent publication US20240317744A1, “Bicyclic Ureas As Kinase Inhibitors” (Incyte Corporation, priority 2023, published 2024).

Experiments:
[1] = biological target: T1, catalytic domain (JH1, amino acids 826-1132) of human JAK2 (Homo sapiens, UniProt O60674); assay: JAK2 LanthaScreen JH1 Binding Assay; conditions: JAK2 JH1 1.5 nM, 50 nM tracer, 2 hours at 25° C.; read-out: JH1 BIND
T1 construct: catalytic domain (JH1, amino acids 826-1132) of human JAK2; FLAG (N); biotin (biotinylated); purchased Carna Biosciences 08-445-20N; host or cells: baculovirus expression system
T1 sequence (O60674 826-1132): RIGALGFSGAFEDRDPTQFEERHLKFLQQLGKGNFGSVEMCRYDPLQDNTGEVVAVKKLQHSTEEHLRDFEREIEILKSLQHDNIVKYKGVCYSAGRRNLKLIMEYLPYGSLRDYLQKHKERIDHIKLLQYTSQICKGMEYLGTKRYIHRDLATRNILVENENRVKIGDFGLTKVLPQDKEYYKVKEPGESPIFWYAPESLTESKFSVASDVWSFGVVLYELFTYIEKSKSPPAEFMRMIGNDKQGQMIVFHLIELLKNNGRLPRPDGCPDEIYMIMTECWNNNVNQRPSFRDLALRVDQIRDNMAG
Method: Example A. JAK2 LanthaScreen JH1 Binding Assay
JAK2 JH1 binding assay utilizes catalytic domain (JH1, amino acids 826-1132) of human JAK2 expressed as N-terminal FLAG-tagged, biotinylated protein in a baculovirus expression system (Carna Biosciences, Product #08-445-20N). The assay was conducted in black 384-well polystyrene plates in a final reaction volume of 20 μL. JAK2 JH1 (1.5 nM) was incubated with compounds (100 nL serially diluted in DMSO) in the presence of 50 nM fluorescent JAK2-JH1 tracer and 0.5 nM Streptavidin-Tb cryptate (Cisbio Part #610SATLB) in assay buffer (50 mM Tris, pH=7.5, 10 mM MgCl2, 0.01% Brij-35, 0.1% BSA, 1 mM EGTA, 5% Glycerol and 5 mM DTT). Non-specific binding was accessed in the presence of 2 mM ATP. After incubation for 2 hours at 25° C., LanthaScreen signals were read on a PHERAstar FS plate reader (BMG LABTECH). Data was analyzed with IDBS XLfit and GraphPad Prism 5.0 software using a four parameter dose response curve to determine IC50 for each compound.

[2] = biological target: catalytic domain (JH1, amino acids 808-1132) of human JAK2 (Homo sapiens, UniProt O60674); assay: JAK2 HTRF Enzyme Activity Assay; format: biochemical; conditions: ATP 30 µM, 60 minutes at 25° C.; read-out: V617F ENZ 30 UM
Chain of catalytic domain (JH1, amino acids 808-1132) of human JAK2 (O60674 808-1132 limits assumed): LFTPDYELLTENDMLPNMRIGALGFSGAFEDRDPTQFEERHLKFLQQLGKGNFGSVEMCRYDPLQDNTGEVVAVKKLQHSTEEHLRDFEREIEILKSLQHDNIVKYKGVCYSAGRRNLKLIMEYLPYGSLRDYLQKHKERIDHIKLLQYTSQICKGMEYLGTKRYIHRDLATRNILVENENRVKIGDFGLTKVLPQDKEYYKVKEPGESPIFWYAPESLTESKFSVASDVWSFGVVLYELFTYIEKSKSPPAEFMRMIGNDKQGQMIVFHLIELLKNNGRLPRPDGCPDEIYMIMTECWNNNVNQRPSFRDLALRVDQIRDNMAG

[3] = biological target: T2, pseudo-kinase domain (JH2, amino-acids 536-812) of human Wild Type JAK2 (Homo sapiens, UniProt O60674, F794H/W659A/W777A); assay: JAK2 LanthaScreen JH2-WT Binding Assay; conditions: JAK2 JH2-WT 0.145 nM, 50 nM tracer, 1 hour at 25° C.; read-out: JH2 BIND WT
T2 construct: pseudo-kinase domain (JH2, amino-acids 536-812 with 3 surface mutations W659A, W777A, F794H); His (C); purchased BPS Bioscience 79463; host or cells: baculovirus expression system
T2 sequence (O60674 536-812 W659A/W777A/F794H): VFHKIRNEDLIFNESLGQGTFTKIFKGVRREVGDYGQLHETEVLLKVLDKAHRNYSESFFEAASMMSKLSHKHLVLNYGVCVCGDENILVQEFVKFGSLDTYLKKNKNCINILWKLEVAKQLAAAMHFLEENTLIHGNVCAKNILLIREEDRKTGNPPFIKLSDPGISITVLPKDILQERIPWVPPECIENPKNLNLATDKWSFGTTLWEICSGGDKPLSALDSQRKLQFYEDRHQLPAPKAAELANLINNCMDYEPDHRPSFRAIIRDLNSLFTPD
Method: Example B. JAK2 LanthaScreen JH2-WT Binding Assay
JAK2 JH2-WT binding assay utilizes pseudo-kinase domain (JH2, amino-acids 536-812 with 3 surface mutations W659A, W777A, F794H) of human Wild Type JAK2 expressed as C-terminal His-Avi-tagged, biotinylated protein in a baculovirus expression system (BPS Bioscience, Catalog #79463). The assay was conducted in black 384-well polystyrene plates in a final reaction volume of 20 μL. JAK2 JH2-WT (0.145 nM) was incubated with compounds (100 nL serially diluted in DMSO) in the presence of 50 nM Fluorescent JAK2-JH2 Tracer (MedChem Express Catalog #HY-102055) and 0.25 nM Streptavidin-Tb cryptate (Cisbio Part #610SATLB) in assay buffer (50 mM Tris, pH=7.5, 10 mM MgCl2, 0.01% Brij-35, 0.1% BSA, 1 mM EGTA, 5% Glycerol and 5 mM DTT). Non-specific binding was accessed in the presence of 2 mM ATP. After incubation for 1 hour at 25° C., LanthaScreen signals were read on a PHERAstar FS plate reader (BMG LABTECH). Data was analyzed with IDBS XLfit and GraphPad Prism 5.0 software using a four parameter dose response curve to determine IC50 for each compound.

[4] = biological target: T3, pseudo-kinase domain (JH2, amino-acids 536-812) of human V617F mutant JAK2 (Homo sapiens, UniProt O60674, F794H/V617F/W659A/W777A); assay: JAK2 LanthaScreen JH2-V617F Binding Assay; conditions: JAK2 JH2-V617F 0.26 nM, 50 nM tracer, 1 hour at 25° C.; read-out: JH2 BIND V617F
T3 construct: pseudo-kinase domain (JH2, amino-acids 536-812 with 3 surface mutations W659A, W777A, F794H); His (C); purchased BPS Bioscience 79498; host or cells: baculovirus expression system
T3 sequence (O60674 536-812 V617F/W659A/W777A/F794H): as the sequence (O60674 536-812 W659A/W777A/F794H) above, with V82F counted along it
Method in brief: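 TR-FRET tracer displacement: 0.26 nM protein, 50 nM tracer, 0.25 nM SA-Tb, 50 mM Tris pH 7.5, 10 mM MgCl2, 5 mM DTT; 1 h, 25° C. NSB = 2 mM ATP. IC50, 4-parameter curve.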

| Structure (SMILES) | IC50 [1] | IC50 [2] | IC50 [3] | IC50 [4] |
| --- | --- | --- | --- | --- |
| [2H]C([2H])([2H])n1c(=O)n([C@@H]2CC[C@@H](NC(=O)OC)C2)c2cc(Nc3cc(C(=O)N4CC5(CCN5C)C4)c4cccc(C(F)(F)F)c4n3)ncc21 [Example 3, Methyl ((1R,3R)-3-(3-(methyl-d3)-6-((4-(1-methyl-1,6-diazaspiro[3.3]heptane-6-carbonyl)-8-(trifluoromethyl)quinolin-2-yl)amino)-2-oxo-2,3-dihydro-1H-imidazo[4,5-c]pyridin-1-yl)cyclopentyl)carbamate] | > 1000 nM | 500 to 1000 nM | ≤ 10 nM | ≤ 10 nM |
| COC(=O)N[C@@H]1CC[C@@H](n2c(=O)n(C)c3cnc(Nc4cccc(-c5ccc(CO)c(C)c5)n4)cc32)C1 [Example 4, Methyl ((1R,3R)-3-(6-((6-(4-(hydroxymethyl)-3-methylphenyl)pyridin-2-yl)amino)-3-methyl-2-oxo-2,3-dihydro-1H-imidazo[4,5-c]pyridin-1-yl)cyclopentyl)carbamate] | > 1000 nM | > 1000 nM | ≤ 10 nM | ≤ 10 nM |
| COC(=O)N[C@@H]1CC[C@@H](n2c(=O)n(C)c3cnc(Nc4cccc(-c5ccc(OC)nc5)n4)cc32)C1 [Example 5, Methyl ((1R,3R)-3-(6-((6′-methoxy-[2,3′-bipyridin]-6-yl)amino)-3-methyl-2-oxo-2,3-dihydro-1H-imidazo[4,5-c]pyridin-1-yl)cyclopentyl)carbamate] | > 1000 nM | > 1000 nM | ≤ 10 nM | ≤ 10 nM |
| [2H]C([2H])([2H])n1c(=O)n([C@@H]2CC[C@@H](NC(=O)OC)C2)c2cc(Nc3cc(C(=O)N4CCC(C#N)CC4)c4cccc(C(F)(F)F)c4n3)ncc21 [Example 6, Methyl ((1R,3R)-3-(6-((4-(4-cyanopiperidine-1-carbonyl)-8-(trifluoromethyl)quinolin-2-yl)amino)-3-(methyl-d3)-2-oxo-2,3-dihydro-1H-imidazo[4,5-c]pyridin-1-yl)cyclopentyl)carbamate] | 100 to 500 nM | 100 to 500 nM | ≤ 10 nM | ≤ 10 nM |
| COC(=O)N[C@@H]1CC[C@@H](n2c(=O)n(C)c3cnc(Nc4cccc(-c5ccc6[nH]nc(C)c6c5)n4)cc32)C1 [Example 7, Methyl ((1R,3R)-3-(3-methyl-6-((6-(3-methyl-1H-indazol-5-yl)pyridin-2-yl)amino)-2-oxo-2,3-dihydro-1H-imidazo[4,5-c]pyridin-1-yl)cyclopentyl)carbamate] | > 1000 nM | > 1000 nM | ≤ 10 nM | 10 to 100 nM |
| COC(=O)N[C@@H]1CC[C@@H](n2c(=O)n(C)c3cnc(Nc4cccc(-c5ccc6c(c5)OCCO6)n4)cc32)C1 [Example 8, Methyl ((1R,3R)-3-(6-((6-(2,3-dihydrobenzo[b][1,4]dioxin-6-yl)pyridin-2-yl)amino)-3-methyl-2-oxo-2,3-dihydro-1H-imidazo[4,5-c]pyridin-1-yl)cyclopentyl)carbamate] | > 1000 nM | > 1000 nM | ≤ 10 nM | ≤ 10 nM |
| COC(=O)N[C@@H]1CC[C@@H](n2c(=O)n(C)c3cnc(Nc4cccc(-c5ccc6ncccc6c5)n4)cc32)C1 [Example 9, Methyl ((1R,3R)-3-(3-methyl-2-oxo-6-((6-(quinolin-6-yl)pyridin-2-yl)amino)-2,3-dihydro-1H-imidazo[4,5-c]pyridin-1-yl)cyclopentyl)carbamate] | > 1000 nM | > 1000 nM | ≤ 10 nM | ≤ 10 nM |
| [2H]C([2H])([2H])n1c(=O)n([C@@H]2CC[C@@H](NC(=O)OC)C2)c2cc(Nc3cc(C(=O)N4CC5CC5(O)C4)c4cccc(C(F)(F)F)c4n3)ncc21 (stereo partly drawn) [Example 10, Methyl ((1R,3R)-3-(6-((4-(1-hydroxy-3-azabicyclo[3.1.0]hexane-3-carbonyl)-8-(trifluoromethyl)quinolin-2-yl)amino)-3-(methyl-d3)-2-oxo-2,3-dihydro-1H-imidazo[4,5-c]pyridin-1-yl)cyclopentyl)carbamate] | 500 to 1000 nM | 100 to 500 nM | ≤ 10 nM | ≤ 10 nM |
